Source: the CheMixHub ionic liquid set
“And” between values parts separate entries of the source, which are not always exact repeats. Equal values may be shown once. ± gives the uncertainty stated by the source.

Assay: xn = mol fraction of the nth substance listed
Conditions: 101.3 kPa

CCCC[N+]1(C)CCCCC1.F[P-](F)(F)(F)(F)F + CCCC[n+]1cccc(C)c1.F[P-](F)(F)(F)(F)F + CCCC[N+]1(C)CCCC1.F[P-](F)(F)(F)(F)F
viscosity
Conditions	298.15 K	303.15 K	308.15 K	313.15 K	318.15 K	323.15 K	328.15 K	333.15 K
x2 = 0.2, x1 = 0.32	–	–	–	–	596 ± 45 mPa·s	439 ± 28 mPa·s	329 ± 18 mPa·s	250 ± 12 mPa·s
x2 = 0.3, x1 = 0.28	–	–	964 ± 96 mPa·s	684 ± 57 mPa·s	495 ± 35 mPa·s	365 ± 22 mPa·s	274 ± 14 mPa·s	210 ± 9 mPa·s
x2 = 0.4, x1 = 0.06	–	794 ± 33 mPa·s	568 ± 22 mPa·s	413 ± 15 mPa·s	306 ± 10 mPa·s	232 ± 7 mPa·s	178 ± 5 mPa·s	139 ± 4 mPa·s
x2 = 0.4, x1 = 0.12	–	916 ± 39 mPa·s	648 ± 26 mPa·s	467 ± 17 mPa·s	344 ± 12 mPa·s	258 ± 8 mPa·s	197 ± 6 mPa·s	153 ± 4 mPa·s
x2 = 0.4, x1 = 0.18	–	964 ± 42 mPa·s	680 ± 28 mPa·s	488 ± 18 mPa·s	358 ± 12 mPa·s	268 ± 8 mPa·s	204 ± 6 mPa·s	158 ± 4 mPa·s
x2 = 0.4, x1 = 0.24	1666 ± 82 mPa·s and 1686 ± 230 mPa·s	1130 ± 52 mPa·s and 1143 ± 130 mPa·s	783 ± 33 mPa·s and 791 ± 72 mPa·s	556 ± 21 mPa·s and 561 ± 42 mPa·s	404 ± 14 mPa·s and 407 ± 26 mPa·s	300 ± 10 mPa·s and 302 ± 16 mPa·s	227 ± 7 mPa·s and 229 ± 10 mPa·s	175 ± 5 mPa·s and 176 ± 7 mPa·s
x2 = 0.4, x1 = 0.3	1857 ± 94 mPa·s	1248 ± 59 mPa·s	859 ± 37 mPa·s	606 ± 24 mPa·s	437 ± 16 mPa·s	323 ± 11 mPa·s	243 ± 7 mPa·s	186 ± 5 mPa·s
x2 = 0.4, x1 = 0.36	2084 ± 110 mPa·s	1390 ± 68 mPa·s	948 ± 42 mPa·s	664 ± 27 mPa·s	476 ± 18 mPa·s	349 ± 12 mPa·s	261 ± 8 mPa·s	199 ± 6 mPa·s
x2 = 0.4, x1 = 0.42	2332 ± 120 mPa·s	1544 ± 77 mPa·s	1045 ± 48 mPa·s	727 ± 30 mPa·s	518 ± 20 mPa·s	378 ± 13 mPa·s	281 ± 9 mPa·s	214 ± 6 mPa·s
x2 = 0.4, x1 = 0.48	2615 ± 140 mPa·s	1714 ± 87 mPa·s	1152 ± 54 mPa·s	795 ± 34 mPa·s	563 ± 22 mPa·s	408 ± 14 mPa·s	302 ± 10 mPa·s	228 ± 7 mPa·s
x2 = 0.4, x1 = 0.54	2945 ± 170 mPa·s	1917 ± 100 mPa·s	1278 ± 61 mPa·s	875 ± 38 mPa·s	615 ± 24 mPa·s	444 ± 16 mPa·s	327 ± 11 mPa·s	246 ± 8 mPa·s
x2 = 0.5, x1 = 0.2	–	–	648 ± 54 mPa·s	465 ± 32 mPa·s	340 ± 20 mPa·s	253 ± 12 mPa·s	192 ± 8 mPa·s	149 ± 5 mPa·s
x2 = 0.6, x1 = 0.16	–	–	534 ± 40 mPa·s	385 ± 24 mPa·s	284 ± 15 mPa·s	213 ± 9 mPa·s	163 ± 6 mPa·s	–
x2 = 0.7, x1 = 0.12	–	–	–	325 ± 19 mPa·s	241 ± 12 mPa·s	182 ± 7 mPa·s	140 ± 5 mPa·s	–
x2 = 0.8, x1 = 0.08	–	–	–	–	206 ± 9 mPa·s	157 ± 6 mPa·s	121 ± 4 mPa·s	–
x2 = 0.9, x1 = 0.04	–	–	–	–	–	136 ± 5 mPa·s	106 ± 3 mPa·s	–
